The values below come from publication PMC12715756 (ACS Chemical Neuroscience, 2025).

Molecules are shown by their SMILES.

Series [1] can be described thus: Metabolic stability, substrate depletion in pooled human liver microsomes. The settings on record: for CLint scaled at 0.5 μM / half-life at 0.5 μM / microsomal CLint at 0.5 μM: human, pooled human liver microsomes; for clearance classification: pHLM. In general terms: Liver microsomes are a subcellular fraction often used to study metabolism.
A further series has as its target T1, OCT2 (Homo sapiens, UniProt O15244).
T1 sequence (O15244 1-555): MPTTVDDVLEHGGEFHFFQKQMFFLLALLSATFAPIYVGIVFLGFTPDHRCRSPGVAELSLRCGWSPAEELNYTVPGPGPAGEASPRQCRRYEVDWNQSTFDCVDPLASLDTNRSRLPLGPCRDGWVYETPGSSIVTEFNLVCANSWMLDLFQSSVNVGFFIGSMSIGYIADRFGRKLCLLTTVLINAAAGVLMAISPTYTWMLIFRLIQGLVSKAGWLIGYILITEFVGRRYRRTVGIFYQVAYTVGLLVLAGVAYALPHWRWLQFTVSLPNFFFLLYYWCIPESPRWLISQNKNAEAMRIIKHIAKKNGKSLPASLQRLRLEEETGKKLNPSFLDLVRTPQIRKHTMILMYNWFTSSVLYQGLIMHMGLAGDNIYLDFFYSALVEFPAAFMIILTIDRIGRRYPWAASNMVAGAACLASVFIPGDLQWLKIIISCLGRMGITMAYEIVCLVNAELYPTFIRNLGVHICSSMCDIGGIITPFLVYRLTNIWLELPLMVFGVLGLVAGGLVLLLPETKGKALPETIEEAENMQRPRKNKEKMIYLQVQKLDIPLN
Kind of series: Uptake inhibition assay, [3H]MPP+ uptake in HEK293 cells.

For series [2], the system named is male Swiss CD-1 mice. Kind of series: Horizontal locomotor activity (HLA). It is filed as in vivo. The settings on record: for effect on horizontal locomotor activity: 2.5, 10, 25 mg/kg i.p., 120 min, ceiling effect at 25 mg/kg. The procedure: (§1) Male Swiss CD-1 mice (Janvier, Le Genest, France), weighing 30–35 g and aged 6–8 weeks, were used for HLA, thigmotaxis, CPP, and core body temperature experiments. Animals were housed under temperature-controlled conditions (22 ± 1 °C) with a 12 h light/dark cycle and had free access to food and water (standard laboratory diet, Panlab SL, Barcelona, Spain). Doses for HLA, thigmotaxis, CPP, and core body temperature experiments were calculated based on the free base form of each compound. For HTR experiments, male C57BL/6J mice (6–8 weeks old) were obtained from Jackson Laboratories (Bar Harbor, ME, USA) and housed up to four per cage with a reversed light-cycle (lights on at 1900 h, off at 0700 h). Food and water were provided ad libitum, except during behavioral testing. Testing was conducted between 1000 and 1830 h. Doses for HTR experiments were calculated based on the respective salt forms of the compounds.
A habituation phase was performed to reduce the stress and novelty associated with handling and injection. During this phase, which lasted for two consecutive days, mice received an intraperitoneal (ip) saline injection and were immediately placed into a black Plexiglas Open Field (OF) arena (25 × 25 × 40 cm) under low-light conditions and white noise for 30 min. On the test day, their horizontal locomotor activity (HLA) was measured. […] HLA was video monitored for 2 h, and a specific tracking software (Smart 3.0 Panlab, Barcelona, Spain) was used to measure their total traveled distance (in cm). Center Versus Periphery: The thigmotactic effects of the test compounds, widely considered as anxiety-like effects, were assessed through an OF test. Each mouse was individually placed in the center of an open-field arena (25 cm length × 25 cm width × 40 cm height). The time spent, in seconds, in the center (8 × 8 cm) or the periphery of the arena was monitored for 2 h (Smart 3.0 Panlab, Barcelona, Spain).

Series [3] deals with male Swiss CD-1 mice. Kind of series: Conditioned place preference (CPP). It counts as in vivo. Particulars: for rewarding effects (CPP preference score): 10 mg/kg i.p., compared to saline; for CPP preference score: lowest dose tested. How it is done:
as §1
For this experiment, an apparatus with two distinct compartments, differing in tactile and visual cues, connected by a central corridor, was used. The conditioned place preference (CPP) procedure consisted of three phases: preconditioning, conditioning, and postconditioning. In the preconditioning phase (day 0), mice were placed in the middle of the corridor and allowed to freely explore both compartments for 15 min. The time spent in each compartment was recorded and monitored using specific tracking software (Smart 3.0 Panlab, Barcelona, Spain). In the conditioning phase (day 1–day 8), access to the corridor was closed. […] On alternate days, , mice received a saline i.p. injection and were placed in the other compartment for 30 min. Mice in the control group received a saline injection in every session. The compartments and sessions in which the drug was administered were randomized. In the postconditioning phase (test day), the same conditions as the preconditioning phase were reinstated. A preference score was determined by calculating the difference in time spent in the drug-paired compartment between the post- and preconditioning phases.

In a further series the test system is male C57BL/6J mice. Kind of series: Head-twitch response (HTR). It is filed as in vivo. The settings on record: IP, 30 min, doses based on the salt form. How it is done: as §1
The HTR was assessed using a head-mounted magnet and a magnetometer detection coil. Mice were anesthetized, a small incision was made in the scalp, and a small neodymium magnet was attached to the dorsal surface of the cranium by using dental cement. Following a two week recovery period, HTR experiments were carried out in a well-lit room with at least 7 days between sessions to avoid carryover effects. Mice (N = 4–7/group) received intraperitoneal (IP) injections of vehicle (saline) or test drug (5 mL/kg injection volume), and then activity was recorded in a glass cylinder surrounded by a magnetometer coil for 30 min. Doses for HTR experiments were calculated based on the respective salt forms of the compounds. Coil voltage was low-pass filtered (1 kHz cutoff frequency), amplified, digitized (20 kHz sampling rate, 16-bit ADC resolution), and saved to disk using a Powerlab 8/35 data acquisition system with LabChart software (ver. 8.1 ADInstruments, Colorado Springs, CO, USA). To detect head twitches, events in the recordings were transformed to scalograms, deep features were extracted using the deep convolutional neural network ResNet-50, and then the images were classified using a support vector machine (SVM). Head twitch counts were analyzed using one-way ANOVA. Posthoc comparisons were made using Dunnett’s test.

In general, CLint scaled refers to the capacity of the preparation to metabolise the compound, expressed as a volume cleared per time. High values mean faster metabolism, low ones greater metabolic stability. Usually half-life stands for the time in which the quantity being followed falls by half. Usually microsomal CLint stands for the capacity of the preparation to metabolise the compound, expressed as a volume cleared per time. The IC50 is the midpoint of a concentration-inhibition curve. Lower therefore signals inhibition by little substance. Consider `CNC(C)Cc1ccc2c(c1)SCO2` (stereo not shown) [SDMA, 1-(1,3-benzoxathiol-5-yl)-N-methylpropan-2-amine], for which, in series [1], the CLint scaled at 0.5 μM turned out to be 8.4 mL/min/kg, the half-life at 0.5 μM came out at 1.18 h, the microsomal CLint at 0.5 μM stood at 9.8 µL/min/mg and the clearance classification result was “low clearance compounds”. Moreover, the concentration for half-maximal inhibition (IC50) against OCT2 was 4.13 ± 0.6 µM. Moreover, in the series with male Swiss CD-1 mice [2], the “effect on horizontal locomotor activity” value was “induced hyperlocomotion”. Besides, in the series on male Swiss CD-1 mice [3], the “rewarding effects (CPP preference score)” value is recorded as “neither SDA nor SDMA induced significant rewarding effects” and the CPP preference score result is on record as “positive preference score at the same dose, it did not reach significance”. In addition, the HTR counts result in the series on male C57BL/6J mice is on record as “Neither MDMA nor SDMA induced an appreciable increase in HTR counts”.
On to `CC(N)Cc1ccc2c(c1)SCO2` (stereo not shown) [SDA, 1-(1,3-benzoxathiol-5-yl)propan-2-amine], for which, in series [1], the CLint scaled at 0.5 μM was determined as 9.7 mL/min/kg, the half-life at 0.5 μM came out at 1.02 h, the microsomal CLint at 0.5 μM came to 11.4 µL/min/mg and the clearance classification entry is “low clearance compounds”. This compound also yielded an IC50 on OCT2 of 5.7 ± 0.6 µM. Moreover, the “efficacy at inducing locomotion, in comparison to SDMA and MDMA” value in the series with male Swiss CD-1 mice [2] (10 mg/kg i.p.) is on record as “significantly higher efficacy”. For the same compound, in the series with male Swiss CD-1 mice [2], the “effect on horizontal locomotor activity” value was “induced hyperlocomotion”. In the series on male Swiss CD-1 mice [3], the “rewarding effects (CPP preference score)” value is given as “neither SDA nor SDMA induced significant rewarding effects” and the CPP preference score entry was “significant preference score”. Further, in the series with male C57BL/6J mice, the HTR counts entry was “dose-related increase in HTR counts peaking at 3 mg/kg”.
